Experimental findings from ChEMBL document CHEMBL3045376, “Pharmacophore modeling and 3D QSAR analysis of isothiazolidinedione derivatives as PTP1B inhibitors” (Med Chem Res, 2013) are described below.

The assay addresses T1, Tyrosine-protein phosphatase non-receptor type 1 (Homo sapiens, UniProt P18031).
T1 sequence (P18031 whole entry): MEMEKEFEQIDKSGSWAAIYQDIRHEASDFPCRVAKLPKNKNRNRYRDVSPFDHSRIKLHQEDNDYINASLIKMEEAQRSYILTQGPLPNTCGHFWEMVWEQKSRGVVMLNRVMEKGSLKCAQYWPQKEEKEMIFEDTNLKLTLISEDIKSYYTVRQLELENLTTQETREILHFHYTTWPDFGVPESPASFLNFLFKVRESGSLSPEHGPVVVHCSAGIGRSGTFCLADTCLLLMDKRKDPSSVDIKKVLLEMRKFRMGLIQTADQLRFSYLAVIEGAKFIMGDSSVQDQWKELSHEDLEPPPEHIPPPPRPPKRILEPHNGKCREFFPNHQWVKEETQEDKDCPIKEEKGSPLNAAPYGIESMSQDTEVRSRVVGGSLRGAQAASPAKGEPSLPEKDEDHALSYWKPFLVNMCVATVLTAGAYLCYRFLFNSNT
As to the kind of experiment: Inhibition of Homo sapiens (human) PTP1B expressed in Escherichia coli using PNPP as substrate.
`NC(=O)[C@H](Cc1ccc(C2CC(=O)NS2(=O)=O)cc1)NC(=O)[C@H](Cc1ccccc1)NC(=O)Cc1ccc(O)cc1` (stereo partly specified) had an IC50 of 170 nM.

In turn, `NC(=O)[C@H](Cc1ccc(C2=CC(=O)NS2(=O)=O)cc1)NC(=O)[C@H](Cc1ccccc1)NC(=O)CCc1ccccc1` had an IC50 of 2700 nM. This IC50 is about 16-fold higher than that of the molecule before.

Take `CC(C)(C)OC(=O)N[C@@H](Cc1ccc(C2CC(=O)NS2(=O)=O)cc1)C(N)=O` (stereo partly specified): it took 70000 nM to reach half-maximal inhibition (IC50). This IC50 lies about 26-fold higher than the previous one.

`COc1ccc(CC(=O)N[C@@H](Cc2ccccc2)C(=O)N[C@@H](Cc2ccc(C3CC(=O)NS3(=O)=O)cc2)C(N)=O)cc1` (stereo partly specified): inhibition was half-maximal at 170 nM (IC50).

For `CCCCCNC(=O)[C@H](Cc1ccc(N2CC(=O)NS2(=O)=O)cc1)NC(=O)[C@H](Cc1ccccc1)NC(=O)Cc1ccc(OC)cc1`, the IC50 was 1500 nM.

Take `NC(=O)[C@H](Cc1ccc(C2=CC(=O)NS2(=O)=O)cc1)NC(=O)[C@H](Cc1ccccc1)NC(=O)c1ccccc1`: it took 1800 nM to reach half-maximal inhibition (IC50).

`CC(=O)N[C@@H](Cc1ccccc1)C(=O)N[C@@H](Cc1ccc([C@@H]2CC(=O)NS2(=O)=O)cc1)C(N)=O`: half-maximal inhibition (IC50) was put at 180 nM.

For the molecule `COc1ccc(CC(=O)N[C@@H](Cc2ccccc2)C(=O)N[C@@H](Cc2ccc(C3=CC(=O)NS3(=O)=O)cc2)C(N)=O)cc1`, the IC50 was 1600 nM.

As to `CC(=O)N[C@@H](Cc1ccc(C2CC(=O)NS2(=O)=O)cc1)C(N)=O` (stereo partly specified), the IC50 is 100000 nM.

Turning to `NC(=O)[C@H](Cc1ccc(C2CC(=O)NS2(=O)=O)cc1)NC(=O)[C@H](Cc1ccccc1)NC(=O)Cc1ccccc1` (stereo partly specified), the IC50 was 180 nM.

`NC(=O)[C@H](Cc1ccc(C2CC(=O)NS2(=O)=O)cc1)NC(=O)[C@H](Cc1ccccc1)NC(=O)CCc1ccccc1` (stereo partly specified) had an IC50 of 340 nM.

In turn, `NC(=O)[C@H](Cc1ccc(C2=CC(=O)NS2(=O)=O)cc1)NC(=O)[C@H](Cc1ccccc1)NC(=O)Cc1ccc(O)cc1` had an IC50 of 791 nM. This IC50 is about 2.3-fold higher than that of the molecule before.

With `NC(=O)[C@@H](N)Cc1ccc(C2CC(=O)NS2(=O)=O)cc1` (stereo partly specified), the IC50 was 100000 nM.

In turn, `NC(=O)[C@H](Cc1ccc(C2CC(=O)NS2(=O)=O)cc1)NC(=O)[C@H](Cc1ccccc1)NC(=O)Cc1ccc(C(F)(F)F)cc1` (stereo partly specified) showed an IC50 of 170 nM. Against the preceding molecule, the IC50 is about 590-fold lower.

In turn, `NC(=O)[C@H](Cc1ccc(C2CC(=O)NS2(=O)=O)cc1)NC(=O)[C@@H](N)Cc1ccccc1` (stereo partly specified) showed an IC50 of 100000 nM.

For the molecule `NC(=O)[C@H](Cc1ccc(C2=CC(=O)NS2(=O)=O)cc1)NC(=O)[C@H](Cc1ccccc1)NC(=O)Cc1ccc(C(F)(F)F)cc1`, the IC50 is 1400 nM.

Take `CCCCCNC(=O)[C@H](Cc1ccc(C2=CS(=O)(=O)NC2=O)cc1)NC(=O)[C@H](Cc1ccccc1)NC(=O)Cc1ccc(OC)cc1`: the IC50 was 6000 nM.

`CC(=O)N[C@@H](Cc1ccccc1)C(=O)N[C@@H](Cc1ccc(C2CC(=O)NS2(=O)=O)cc1)C(N)=O` (stereo partly specified): inhibition was half-maximal at 661 nM (IC50). This IC50 lies about 9.1-fold lower than the previous one.

As to `NC(=O)[C@H](Cc1ccc(C2=CC(=O)NS2(=O)=O)cc1)NC(=O)[C@@H](N)Cc1ccccc1`, the half-maximal inhibitory concentration (IC50) is 100000 nM.

The molecule `CCCCCNC(=O)[C@H](Cc1ccc(C2=CC(=O)NS2(=O)=O)cc1)NC(=O)[C@H](Cc1ccccc1)NC(=O)Cc1ccc(OC)cc1` showed an IC50 of 1200 nM. Against the preceding molecule, the IC50 is about 83-fold lower.

`NC(=O)[C@H](Cc1ccc(C2=CC(=O)NS2(=O)=O)cc1)NC(=O)[C@H](Cc1ccccc1)NC(=O)Cc1ccccc1`: the half-maximal inhibitory concentration (IC50) was 1000 nM. This IC50 and that of the molecule before are within 1.5-fold of each other.
